Laboratory results from ChEMBL document CHEMBL4765406 (Eur J Med Chem, 2020).
The source made the active and inactive calls. The calls are words filed in the database; no cut-off is given here.

Tests used:
[1] = molecular target: T1, Tyrosine-protein kinase BTK (Homo sapiens, UniProt Q06187); experiment: Inhibition of BTK in human Ramos cells assessed as reduction in anti-human IgM F(ab)2-induced ERK phosphorylation preincubated for 10 mins followed by stimulated with antihuman IgM F(ab)2 incubated for 60 mins by Western blot analysis; type: cell-based; conditions: time 70.0 min
T1 sequence (Q06187 whole entry): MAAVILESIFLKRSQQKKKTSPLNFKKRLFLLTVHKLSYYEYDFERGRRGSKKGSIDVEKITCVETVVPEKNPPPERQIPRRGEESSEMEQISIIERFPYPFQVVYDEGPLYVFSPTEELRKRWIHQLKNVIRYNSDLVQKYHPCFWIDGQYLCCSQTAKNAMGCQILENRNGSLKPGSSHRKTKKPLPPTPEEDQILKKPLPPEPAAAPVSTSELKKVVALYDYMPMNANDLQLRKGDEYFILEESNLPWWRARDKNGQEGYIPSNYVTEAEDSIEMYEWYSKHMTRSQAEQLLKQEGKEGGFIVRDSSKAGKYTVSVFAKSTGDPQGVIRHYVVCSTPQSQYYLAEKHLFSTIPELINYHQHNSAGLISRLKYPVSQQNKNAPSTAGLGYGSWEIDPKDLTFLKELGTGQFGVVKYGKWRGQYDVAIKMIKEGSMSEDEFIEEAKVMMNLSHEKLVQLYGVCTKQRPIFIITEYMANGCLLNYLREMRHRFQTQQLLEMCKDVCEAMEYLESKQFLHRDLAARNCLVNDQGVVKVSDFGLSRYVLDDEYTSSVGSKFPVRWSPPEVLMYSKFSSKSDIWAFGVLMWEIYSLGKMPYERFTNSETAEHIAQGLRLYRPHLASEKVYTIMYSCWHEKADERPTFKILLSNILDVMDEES

[2] = molecular target: T1, Tyrosine-protein kinase BTK; experiment: Inhibition of BTK (unknown origin) using poly(Glu, Tyr) 4:1 as substrate incubated in presence of [gamma33P]ATP by image analyser
[3] = molecular target: T1, Tyrosine-protein kinase BTK; experiment: Inhibition of BTK in human Ramos cells assessed as reduction in anti-human IgM F(ab)2-induced BTK phosphorylation at Tyr223 residue preincubated for 10 mins followed by stimulated with antihuman IgM F(ab)2 incubated for 60 mins by Western blot analysis; type: cell-based; conditions: time 1.0 hrs
[4] = molecular target: T1, Tyrosine-protein kinase BTK; experiment: Inhibition of BTK in human Ramos cells assessed as reduction in anti-human IgM F(ab)2-induced BCR mediated PLCgamma2 phosphorylation preincubated for 10 mins followed by stimulated with antihuman IgM F(ab)2 incubated for 60 mins by Western blot analysis; type: cell-based; conditions: time 70.0 min
[5] = molecular target: T1, Tyrosine-protein kinase BTK; experiment: Inhibition of BTK in human Ramos cells assessed as reduction in anti-human IgM F(ab)2-induced BTK phosphorylation at Tyr551 residue preincubated for 10 mins followed by stimulated with antihuman IgM F(ab)2 incubated for 60 mins by Western blot analysis; type: cell-based; conditions: time 70.0 min

Compound	inhibition [1]	IC50 [2] [nM]	inhibition [3]	inhibition [4]	inhibition [5]
c1cn2cc(-c3ccc4cn[nH]c4c3)nc(Nc3ccc(N4CCOCC4)cc3)c2n1 [ENTOSPLETINIB]	Active	801	Active	Active	Active
c1nc2c(Nc3ccc(N4CCOCC4)cc3)cc(-c3ccc4cn[nH]c4c3)nc2[nH]1	–	1450	–	–	–
c1nc2c(Nc3ccc(N4CCOCC4)cc3)nc(-c3ccc4cn[nH]c4c3)cc2[nH]1	inactive	369	–	–	–
c1cc(N2CCOCC2)ccc1Nc1nc(-c2ccc3cn[nH]c3c2)nc2[nH]ncc12	–	167	–	–	–
c1nc2c(Nc3ccc(N4CCOCC4)cc3)nc(-c3ccc4cn[nH]c4c3)nc2[nH]1	–	73	–	–	–
c1cc2nc(-c3ccc4cn[nH]c4c3)nc(Nc3ccc(N4CCOCC4)cc3)c2[nH]1	–	> 20000	–	–	–
